The source of these data is ChEMBL document CHEMBL1139670, “Novel 4-N-substituted aryl pent-2-ene-1,4-dione derivatives of piperazinyloxazolidinones as antibacterials” (2006).

Common to all, as to format: functional
Experiment [1] relates to Enterococcus faecalis. Kind of experiment: Antibacterial activity against vancomycin-resistant Enterococcus faecalis ATCC 700802.
Experiment [2] relates to Staphylococcus aureus. In words: Antibacterial activity against Staphylococcus aureus ATCC 14154.
The test system of a further experiment is Bacillus pumilus. Kind of experiment: Antibacterial activity against Bacillus pumilus ATCC 14348.
In experiment [3] the test system is Staphylococcus epidermidis. In words: Antibacterial activity against Staphylococcus epidermidis ATCC 155.
The next experiment deals with Streptococcus pneumoniae. In words: Antibacterial activity against penicillin-resistant Streptococcus pneumoniae ATCC 700904.
Experiment [4] relates to Staphylococcus aureus. Kind of experiment: Antibacterial activity against Staphylococcus aureus ATCC 29213.
For experiment [5], the system named is Staphylococcus aureus. In words: Antibacterial activity against Staphylococcus aureus ATCC 25923.
The test system of experiment [6] is Staphylococcus aureus. Kind of experiment: Antibacterial activity against methicillin-resistant Staphylococcus aureus ATCC 700699.
In experiment [7] the test system is Enterococcus faecalis. Kind of experiment: Antibacterial activity against Enterococcus faecalis ATCC 35550.
The subject of experiment [8] is Staphylococcus aureus. In words: Antibacterial activity against Staphylococcus aureus ATCC 9144.
Experiment [9] concerns Enterococcus faecalis. In words: Antibacterial activity against Enterococcus faecalis ATCC 14506.
The subject of experiment [10] is Staphylococcus aureus. Kind of experiment: Antibacterial activity against linezolid-resistant Staphylococcus aureus NRS 119.
Another experiment has as its system Streptococcus pyogenes. Kind of experiment: Antibacterial activity against Streptococcus pyogenes ATCC 14289.

In brackets after ≈: the same amount, converted by molar mass. Activity calls are given as the source filed them. The rule behind the calls is not given here.

As to `CC(=O)NC[C@H]1CN(c2ccc(N3CCN(C(=O)/C=C/C(=O)c4cccc5ccccc45)CC3)c(F)c2)C(=O)O1`, the MIC (in general, the lowest concentration that inhibits growth of the organism) was 8 µg/mL (≈ 14.7 µM) against Enterococcus faecalis [1]; 4 µg/mL (≈ 7.35 µM) against Staphylococcus aureus [2]; 1 µg/mL (≈ 1.84 µM) in the experiment on Bacillus pumilus; 2 µg/mL (≈ 3.67 µM) in [3]; 2 µg/mL (≈ 3.67 µM) in the experiment on Streptococcus pneumoniae; 2 µg/mL (≈ 3.67 µM) in the experiment on Staphylococcus aureus [4]. Moreover, the MIC was 2 µg/mL (≈ 3.67 µM) against Staphylococcus aureus [5]; 8 µg/mL (≈ 14.7 µM) in the experiment on Staphylococcus aureus [6]; 0.5 µg/mL (≈ 0.918 µM) against Enterococcus faecalis [7]; 4 µg/mL (≈ 7.35 µM) against Staphylococcus aureus [8]; 1 µg/mL (≈ 1.84 µM) against Enterococcus faecalis [9]; above 16 µg/mL in the experiment with Staphylococcus aureus [10]. Besides, it took 0.5 µg/mL (≈ 0.918 µM) to inhibit growth with Streptococcus pyogenes (MIC).

Consider `CC(=O)/C=C/C(=O)N1CCN(c2ccc(N3C[C@H](CNC(C)=O)OC3=O)cc2F)CC1`, for which the MIC in the experiment with Enterococcus faecalis [1] is 2 µg/mL (≈ 4.62 µM); in the experiment with Staphylococcus aureus [2], 1 µg/mL (≈ 2.31 µM); with Bacillus pumilus, 0.5 µg/mL (≈ 1.16 µM); in experiment [3], 0.25 µg/mL (≈ 0.578 µM); against Streptococcus pneumoniae, 0.5 µg/mL (≈ 1.16 µM); in the experiment with Staphylococcus aureus [5] it was 0.25 µg/mL (≈ 0.578 µM). Further, the MIC against Staphylococcus aureus [6] is 1 µg/mL (≈ 2.31 µM); against Enterococcus faecalis [7] it was 1 µg/mL (≈ 2.31 µM); with Staphylococcus aureus [8] it was 1 µg/mL (≈ 2.31 µM); in the experiment with Enterococcus faecalis [9], 4 µg/mL (≈ 9.25 µM); in the experiment on Staphylococcus aureus [10], above 16 µg/mL.

Regarding `COc1ccc(C(=O)/C=C/C(=O)N2CCN(c3ccc(N4C[C@H](C/N=C(/C)S)OC4=O)cc3F)CC2)cc1`, the MIC in the experiment on Staphylococcus aureus [2] is 0.25 µg/mL (≈ 0.462 µM); against Bacillus pumilus, 0.5 µg/mL (≈ 0.925 µM); in experiment [3], 0.12 µg/mL (≈ 0.222 µM); in the experiment on Streptococcus pneumoniae it was 1 µg/mL (≈ 1.85 µM); against Staphylococcus aureus [4], at most 0.12 µg/mL; against Staphylococcus aureus [5], 0.25 µg/mL (≈ 0.462 µM). The MIC in the experiment on Staphylococcus aureus [6] was 0.5 µg/mL (≈ 0.925 µM); in the experiment with Enterococcus faecalis [7], 0.25 µg/mL (≈ 0.462 µM); against Staphylococcus aureus [8], at most 0.12 µg/mL; in the experiment on Enterococcus faecalis [9], 1 µg/mL (≈ 1.85 µM); in the experiment on Staphylococcus aureus [10], above 16 µg/mL; with Streptococcus pyogenes, 0.25 µg/mL (≈ 0.462 µM).

As for `CC(=O)NC[C@H]1CN(c2ccc(N3CCN(C(=O)/C=C/C(=O)c4ccc(NC(C)=O)cc4)CC3)c(F)c2)C(=O)O1`, the MIC against Staphylococcus aureus [2] was at most 0.12 µg/mL; in the experiment with Bacillus pumilus it was 0.5 µg/mL (≈ 0.906 µM); in experiment [3], at most 0.12 µg/mL; in the experiment on Staphylococcus aureus [4], at most 0.12 µg/mL; against Staphylococcus aureus [5], 0.5 µg/mL (≈ 0.906 µM); in the experiment on Staphylococcus aureus [6] it was 1 µg/mL (≈ 1.81 µM). Moreover, the MIC in the experiment on Enterococcus faecalis [7] is 0.25 µg/mL (≈ 0.453 µM); in the experiment with Staphylococcus aureus [8], at most 0.12 µg/mL; in the experiment with Enterococcus faecalis [9] it was 1 µg/mL (≈ 1.81 µM); in the experiment with Staphylococcus aureus [10], above 16 µg/mL; against Streptococcus pyogenes, at most 0.12 µg/mL. Further, in the experiment with Streptococcus pneumoniae, the MIC result was “inactive”.

Turning to `CC(=O)NC[C@H]1CN(c2ccc(N3CCN(C(=O)/C=C/c4ccccc4)CC3)c(F)c2)C(=O)O1`, the minimal inhibitory concentration (MIC) in the experiment on Enterococcus faecalis [1] was found to be 0.5 µg/mL (≈ 1.07 µM); against Staphylococcus aureus [2] it was 2 µg/mL (≈ 4.29 µM); with Bacillus pumilus, 0.5 µg/mL (≈ 1.07 µM); in [3], 1 µg/mL (≈ 2.14 µM); against Streptococcus pneumoniae, 0.5 µg/mL (≈ 1.07 µM); in the experiment with Staphylococcus aureus [4] it was 2 µg/mL (≈ 4.29 µM). Further, the MIC in the experiment with Staphylococcus aureus [5] was 1 µg/mL (≈ 2.14 µM); in the experiment with Staphylococcus aureus [6] it was 1 µg/mL (≈ 2.14 µM); with Enterococcus faecalis [7], 1 µg/mL (≈ 2.14 µM); against Staphylococcus aureus [8], 2 µg/mL (≈ 4.29 µM); in the experiment on Enterococcus faecalis [9], 0.5 µg/mL (≈ 1.07 µM); in the experiment with Staphylococcus aureus [10] it was above 16 µg/mL. The same molecule displayed an MIC in the experiment on Streptococcus pyogenes of 1 µg/mL (≈ 2.14 µM).

Take `CC(=O)NC[C@H]1CN(c2ccc(N3CCN(C(=O)/C=C/C(=O)[O-])CC3)c(F)c2)C(=O)O1.[Na+]`: the minimal inhibitory concentration (MIC) (against Bacillus pumilus; in experiment [3]; with Staphylococcus aureus [5]; against Enterococcus faecalis [7]) was above 16 µg/mL each time.

Take `CC(=O)NC[C@H]1CN(c2ccc(N3CCN(C(=O)/C=C/C(=O)c4ccc(Br)cc4)CC3)c(F)c2)C(=O)O1`: the MIC was above 16 µg/mL in the experiment with Enterococcus faecalis [1]; 2 µg/mL (≈ 3.49 µM) against Staphylococcus aureus [2]; 0.12 µg/mL (≈ 0.209 µM) with Bacillus pumilus; 0.25 µg/mL (≈ 0.436 µM) in experiment [3]; 2 µg/mL (≈ 3.49 µM) with Streptococcus pneumoniae; 4 µg/mL (≈ 6.98 µM) with Staphylococcus aureus [4]. In addition, the minimum inhibitory concentration (MIC) is at most 0.12 µg/mL with Staphylococcus aureus [5]; 4 µg/mL (≈ 6.98 µM) in the experiment with Staphylococcus aureus [6]; 2 µg/mL (≈ 3.49 µM) with Enterococcus faecalis [7]; 4 µg/mL (≈ 6.98 µM) in the experiment with Staphylococcus aureus [8]; 2 µg/mL (≈ 3.49 µM) with Enterococcus faecalis [9]; above 16 µg/mL against Staphylococcus aureus [10].

`COc1ccc(C(=O)/C=C/C(=O)N2CCN(c3ccc(N4C[C@H](CNC(C)=O)OC4=O)cc3F)CC2)cc1`: the minimal inhibitory concentration (MIC) in the experiment on Enterococcus faecalis [1] is 2 µg/mL (≈ 3.81 µM); in the experiment with Staphylococcus aureus [2], at most 0.12 µg/mL; in the experiment on Bacillus pumilus, 0.5 µg/mL (≈ 0.953 µM); in [3], 0.25 µg/mL (≈ 0.477 µM); with Streptococcus pneumoniae, 2 µg/mL (≈ 3.81 µM); against Staphylococcus aureus [4] it was 0.25 µg/mL (≈ 0.477 µM). Besides, the MIC with Staphylococcus aureus [5] was 0.5 µg/mL (≈ 0.953 µM); in the experiment with Staphylococcus aureus [6] it was 1 µg/mL (≈ 1.91 µM); against Enterococcus faecalis [7] it was 0.5 µg/mL (≈ 0.953 µM); against Staphylococcus aureus [8] it was 0.5 µg/mL (≈ 0.953 µM); in the experiment on Enterococcus faecalis [9] it was 1 µg/mL (≈ 1.91 µM); in the experiment on Staphylococcus aureus [10] it was above 16 µg/mL. In the experiment on Streptococcus pyogenes, the MIC was at most 0.12 µg/mL.

Regarding `CC(=O)NC[C@H]1CN(c2ccc(N3CCN(C(=O)/C=C/C(=O)c4ccccc4)CC3)c(F)c2)C(=O)O1`, the minimal inhibitory concentration (MIC) is 2 µg/mL (≈ 4.04 µM) in the experiment with Enterococcus faecalis [1]; at most 0.12 µg/mL against Staphylococcus aureus [2]; 1 µg/mL (≈ 2.02 µM) in the experiment with Bacillus pumilus; 0.12 µg/mL (≈ 0.243 µM) in [3]; at most 0.12 µg/mL in the experiment on Streptococcus pneumoniae; 0.25 µg/mL (≈ 0.506 µM) in the experiment on Staphylococcus aureus [4]. Besides, the minimum inhibitory concentration (MIC) against Staphylococcus aureus [5] is at most 0.12 µg/mL; against Staphylococcus aureus [6] it was at most 0.12 µg/mL; against Enterococcus faecalis [7], 0.5 µg/mL (≈ 1.01 µM); in the experiment with Staphylococcus aureus [8] it was at most 0.12 µg/mL; in the experiment on Enterococcus faecalis [9], 2 µg/mL (≈ 4.04 µM); against Staphylococcus aureus [10], 4 µg/mL (≈ 8.09 µM). Also, in the experiment on Streptococcus pyogenes, it took 0.25 µg/mL (≈ 0.506 µM) to inhibit growth (MIC).

As to `CC(=O)NC[C@H]1CN(c2ccc(N3CCN(C(=O)CO)CC3)c(F)c2)C(=O)O1` [EPEREZOLID], the MIC in the experiment with Enterococcus faecalis [1] is 1 µg/mL (≈ 2.54 µM); in the experiment on Staphylococcus aureus [2], 2 µg/mL (≈ 5.07 µM); in the experiment on Bacillus pumilus, 1 µg/mL (≈ 2.54 µM); in the experiment with Streptococcus pneumoniae, 0.5 µg/mL (≈ 1.27 µM); in the experiment on Staphylococcus aureus [4] it was 2 µg/mL (≈ 5.07 µM); in the experiment with Staphylococcus aureus [5] it was 2 µg/mL (≈ 5.07 µM). The MIC in the experiment with Staphylococcus aureus [6] was 1 µg/mL (≈ 2.54 µM); against Enterococcus faecalis [7], 2 µg/mL (≈ 5.07 µM); in the experiment with Staphylococcus aureus [8], 2 µg/mL (≈ 5.07 µM); against Enterococcus faecalis [9], 1 µg/mL (≈ 2.54 µM); against Staphylococcus aureus [10], above 16 µg/mL; in the experiment with Streptococcus pyogenes, 0.5 µg/mL (≈ 1.27 µM).

As to `CC(=O)NC[C@H]1CN(c2ccc(N3CCOCC3)c(F)c2)C(=O)O1` [LINEZOLID], the MIC was 2 µg/mL (≈ 5.93 µM) in the experiment with Bacillus pumilus; 1 µg/mL (≈ 2.96 µM) in experiment [3]; 0.25 µg/mL (≈ 0.741 µM) against Streptococcus pneumoniae; 1 µg/mL (≈ 2.96 µM) in the experiment on Staphylococcus aureus [5]; 1 µg/mL (≈ 2.96 µM) in the experiment on Staphylococcus aureus [6]; above 16 µg/mL in the experiment on Staphylococcus aureus [10]. The molecule further returned an MIC against Streptococcus pyogenes of 0.25 µg/mL (≈ 0.741 µM).
